Literature values, collected in article PMC3099137 (Bioorganic & medicinal chemistry, 2011).

Columns and labels:
[1] = mice, attributed to in vivo defluorination
EGFR tyrosine kinase = details: read-out: IC50, inhibition of EGFR tyrosine kinase activity

Row | bone uptake (in words) [1] | IC50 (EGFR tyrosine kinase) [nM] | Compound
1 | high bone uptake | – | COc1cc2ncnc(Nc3ccc([18F])c(Cl)c3)c2cc1OC [4-(3-chloro-4-[^18F]fluoroanilino)-6,7-dimethoxy-quinazoline]
2 | – | 0.025 | COc1cc2ncnc(Nc3cccc(Br)c3)c2cc1OC [PD153035, 6,7-dimethoxy-4-(3-bromoanilino)quinazoline]
3 | – | 0.006 | CCOc1cc2ncnc(Nc3cccc(Br)c3)c2cc1OCC [diethoxy- derivative]
